Measured values taken from PMC6513986, “Molecular basis for heat desensitization of TRPV1 ion channels” (Nature Communications, 2019).
Where two headings read alike, the source gives them in different places.

What was measured:
mouse TRPV1 (mV1) = mouse TRPV1 (mV1) (Mus musculus, UniProt Q704Y3); experiment: Agonist activation, patch clamp, HEK293T; type: cell-based; settings: read-out: EC50_Capsaicin
Fruit bat TRPV1 = Fruit bat TRPV1 (Carollia brevicauda, UniProt G1DJ79); experiment: Agonist activation, patch clamp, HEK293T; type: cell-based; settings: read-out: EC50_Capsaicin
Chain of Fruit bat TRPV1 (G1DJ79 1-838): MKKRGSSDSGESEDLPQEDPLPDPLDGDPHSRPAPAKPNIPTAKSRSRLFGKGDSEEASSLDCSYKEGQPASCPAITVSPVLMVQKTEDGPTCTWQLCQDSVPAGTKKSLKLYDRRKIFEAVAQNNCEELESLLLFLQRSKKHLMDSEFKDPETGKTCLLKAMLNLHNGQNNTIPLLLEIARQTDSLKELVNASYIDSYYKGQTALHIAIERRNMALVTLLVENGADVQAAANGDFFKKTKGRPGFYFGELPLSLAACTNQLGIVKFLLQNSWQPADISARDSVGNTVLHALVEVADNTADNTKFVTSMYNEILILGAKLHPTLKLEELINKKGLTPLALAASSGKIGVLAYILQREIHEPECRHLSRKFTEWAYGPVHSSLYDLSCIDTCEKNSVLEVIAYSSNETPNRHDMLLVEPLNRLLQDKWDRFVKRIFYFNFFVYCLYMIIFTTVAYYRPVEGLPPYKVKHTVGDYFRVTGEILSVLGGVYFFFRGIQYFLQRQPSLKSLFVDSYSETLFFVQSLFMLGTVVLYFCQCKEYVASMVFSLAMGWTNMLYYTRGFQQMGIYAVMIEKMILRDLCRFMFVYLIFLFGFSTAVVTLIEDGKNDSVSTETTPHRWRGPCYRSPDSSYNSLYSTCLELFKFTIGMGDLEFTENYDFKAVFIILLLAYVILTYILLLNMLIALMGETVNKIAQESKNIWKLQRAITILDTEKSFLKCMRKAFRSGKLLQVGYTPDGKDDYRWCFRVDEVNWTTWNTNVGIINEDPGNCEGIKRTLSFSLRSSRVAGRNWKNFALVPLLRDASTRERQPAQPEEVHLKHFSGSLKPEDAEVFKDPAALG

Tree shrew TRPV1 = Tree shrew TRPV1 (Tupaia chinensis, UniProt L8Y7X1); experiment: Agonist activation, patch clamp, HEK293T; type: cell-based, Tupaia belangeri chinensis; settings: read-out: EC50_Capsaicin
Chain of Tree shrew TRPV1 (L8Y7X1 1-828): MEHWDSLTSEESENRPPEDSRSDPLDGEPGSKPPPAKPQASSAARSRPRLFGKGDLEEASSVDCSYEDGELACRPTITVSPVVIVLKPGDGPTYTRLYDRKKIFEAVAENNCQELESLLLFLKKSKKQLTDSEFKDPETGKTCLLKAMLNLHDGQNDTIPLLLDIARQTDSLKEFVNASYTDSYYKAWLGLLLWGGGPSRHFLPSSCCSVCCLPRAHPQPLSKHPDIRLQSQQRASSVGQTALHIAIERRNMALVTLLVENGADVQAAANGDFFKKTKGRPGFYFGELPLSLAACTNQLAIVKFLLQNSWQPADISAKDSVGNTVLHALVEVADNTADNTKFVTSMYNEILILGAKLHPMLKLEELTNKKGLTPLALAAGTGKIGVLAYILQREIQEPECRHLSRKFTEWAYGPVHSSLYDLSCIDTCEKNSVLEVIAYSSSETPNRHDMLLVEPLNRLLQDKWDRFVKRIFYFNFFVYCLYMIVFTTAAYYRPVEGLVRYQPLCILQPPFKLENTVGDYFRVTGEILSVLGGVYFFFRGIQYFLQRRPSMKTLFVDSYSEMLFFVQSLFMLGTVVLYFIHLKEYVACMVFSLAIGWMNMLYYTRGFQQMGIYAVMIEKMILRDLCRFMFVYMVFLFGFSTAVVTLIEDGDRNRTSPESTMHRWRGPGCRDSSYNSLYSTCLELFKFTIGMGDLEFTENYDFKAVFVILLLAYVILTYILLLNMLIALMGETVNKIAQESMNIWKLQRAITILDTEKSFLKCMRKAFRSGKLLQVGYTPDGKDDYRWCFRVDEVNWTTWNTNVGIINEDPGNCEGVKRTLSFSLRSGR

Camel TRPV1 = Camel TRPV1 (Camelus ferus, UniProt A0A8B8UHM1); experiment: Agonist activation, patch clamp, HEK293T; type: cell-based; settings: read-out: EC50_Capsaicin
Chain of Camel TRPV1 (A0A8B8UHM1 1-838): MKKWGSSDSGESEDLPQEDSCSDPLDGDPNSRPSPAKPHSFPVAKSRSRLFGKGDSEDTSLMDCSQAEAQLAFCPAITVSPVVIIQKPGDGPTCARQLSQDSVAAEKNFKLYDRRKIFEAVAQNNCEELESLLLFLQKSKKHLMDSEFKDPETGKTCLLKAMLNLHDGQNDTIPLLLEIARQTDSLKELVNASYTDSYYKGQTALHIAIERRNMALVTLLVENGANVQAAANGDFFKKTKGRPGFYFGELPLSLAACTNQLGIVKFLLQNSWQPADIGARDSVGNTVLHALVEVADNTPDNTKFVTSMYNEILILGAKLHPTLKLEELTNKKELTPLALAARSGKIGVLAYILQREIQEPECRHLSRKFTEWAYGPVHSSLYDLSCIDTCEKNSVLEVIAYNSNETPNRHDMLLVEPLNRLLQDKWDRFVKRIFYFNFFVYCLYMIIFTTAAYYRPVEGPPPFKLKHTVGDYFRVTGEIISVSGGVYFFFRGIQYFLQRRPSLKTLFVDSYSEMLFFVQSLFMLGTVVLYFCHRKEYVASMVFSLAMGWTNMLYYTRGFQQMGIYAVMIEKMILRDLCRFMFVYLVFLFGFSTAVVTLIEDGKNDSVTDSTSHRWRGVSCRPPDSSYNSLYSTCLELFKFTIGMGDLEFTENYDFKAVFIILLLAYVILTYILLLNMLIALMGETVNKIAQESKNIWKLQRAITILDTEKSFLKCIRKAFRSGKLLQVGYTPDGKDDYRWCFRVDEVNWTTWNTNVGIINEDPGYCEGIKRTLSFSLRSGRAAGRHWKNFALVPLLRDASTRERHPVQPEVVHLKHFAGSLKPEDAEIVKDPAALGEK

pV1_mNC chimera = pV1_mNC chimera (Ornithorhynchus anatinus, UniProt F7A7B4); experiment: Agonist activation, patch clamp, HEK293T; type: cell-based, platypus / mouse; settings: read-out: EC50_Capsaicin
Chain of pV1_mNC chimera (F7A7B4 436-691, stated change not applied): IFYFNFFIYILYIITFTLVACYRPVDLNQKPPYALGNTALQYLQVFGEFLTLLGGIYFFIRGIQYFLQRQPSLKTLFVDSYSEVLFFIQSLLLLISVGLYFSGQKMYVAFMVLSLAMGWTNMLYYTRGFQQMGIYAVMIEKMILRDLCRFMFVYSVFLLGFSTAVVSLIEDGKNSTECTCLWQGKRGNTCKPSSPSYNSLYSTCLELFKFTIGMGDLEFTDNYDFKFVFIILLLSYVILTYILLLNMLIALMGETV
Chain of pV1_mNC chimera (Q704Y3 with tags, fused parts or gaps partner): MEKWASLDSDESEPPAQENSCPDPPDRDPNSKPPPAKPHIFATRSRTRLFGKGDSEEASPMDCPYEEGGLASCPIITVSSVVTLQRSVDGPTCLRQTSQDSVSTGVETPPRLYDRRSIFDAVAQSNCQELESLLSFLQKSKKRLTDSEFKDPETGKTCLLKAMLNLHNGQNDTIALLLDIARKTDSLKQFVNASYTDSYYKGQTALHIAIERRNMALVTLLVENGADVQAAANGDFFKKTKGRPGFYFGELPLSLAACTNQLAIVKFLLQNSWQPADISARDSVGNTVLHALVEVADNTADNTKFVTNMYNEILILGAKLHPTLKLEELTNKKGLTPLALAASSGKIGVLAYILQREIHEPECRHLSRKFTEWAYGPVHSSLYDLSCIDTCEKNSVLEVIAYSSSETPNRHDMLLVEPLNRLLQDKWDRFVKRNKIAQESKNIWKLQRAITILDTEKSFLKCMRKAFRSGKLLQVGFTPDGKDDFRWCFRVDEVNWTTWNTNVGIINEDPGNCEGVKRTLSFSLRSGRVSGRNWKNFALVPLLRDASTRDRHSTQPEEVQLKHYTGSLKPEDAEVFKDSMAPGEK
Chain of pV1_mNC chimera (Q704Y3 with tags, fused parts or gaps partner): as above

mV1 T371G = mV1 T371G (Mus musculus, UniProt Q704Y3, T371G); experiment: Agonist activation, patch clamp, HEK293T; type: cell-based; settings: read-out: EC50_Capsaicin
Chain of mV1 T371G (Q704Y3 whole entry T371G): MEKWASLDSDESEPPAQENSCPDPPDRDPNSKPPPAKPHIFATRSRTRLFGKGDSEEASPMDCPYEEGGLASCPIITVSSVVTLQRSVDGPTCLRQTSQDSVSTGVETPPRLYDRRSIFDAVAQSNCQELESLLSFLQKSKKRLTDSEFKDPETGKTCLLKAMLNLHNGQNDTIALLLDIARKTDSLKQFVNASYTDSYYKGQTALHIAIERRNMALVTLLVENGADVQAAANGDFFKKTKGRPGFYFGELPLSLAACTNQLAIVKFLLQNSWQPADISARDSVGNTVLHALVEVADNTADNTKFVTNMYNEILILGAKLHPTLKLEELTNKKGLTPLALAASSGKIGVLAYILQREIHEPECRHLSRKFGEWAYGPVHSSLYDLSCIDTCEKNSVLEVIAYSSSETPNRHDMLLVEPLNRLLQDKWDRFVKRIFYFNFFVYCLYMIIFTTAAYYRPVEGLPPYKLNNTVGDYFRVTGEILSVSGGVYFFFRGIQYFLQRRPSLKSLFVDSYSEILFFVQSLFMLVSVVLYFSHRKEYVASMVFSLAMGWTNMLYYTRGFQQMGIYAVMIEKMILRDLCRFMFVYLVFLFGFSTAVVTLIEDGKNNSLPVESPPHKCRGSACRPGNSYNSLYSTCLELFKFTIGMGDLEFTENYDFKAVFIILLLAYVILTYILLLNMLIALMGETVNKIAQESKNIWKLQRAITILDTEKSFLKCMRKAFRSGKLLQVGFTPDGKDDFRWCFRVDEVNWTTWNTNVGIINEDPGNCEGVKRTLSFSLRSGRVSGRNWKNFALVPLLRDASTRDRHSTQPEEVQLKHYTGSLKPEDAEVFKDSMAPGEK

mV1 S833A = mV1 S833A (Mus musculus, UniProt Q704Y3, S833A); experiment: Agonist activation, patch clamp, HEK293T; type: cell-based; settings: read-out: EC50_Capsaicin
Chain of mV1 S833A (Q704Y3 whole entry S833A): as the sequence (Q704Y3 whole entry T371G) above, with G371T, S833A counted along it

mV1 P836A = mV1 P836A (Mus musculus, UniProt Q704Y3, P836A); experiment: Agonist activation, patch clamp, HEK293T; type: cell-based; settings: read-out: EC50_Capsaicin
Chain of mV1 P836A (Q704Y3 whole entry P836A): as the sequence (Q704Y3 whole entry T371G) above, with G371T, P836A counted along it

mV1_241 (ANAP) = mV1_241 (ANAP) (Mus musculus, UniProt Q704Y3, K241X); experiment: Agonist activation of ANAP-incorporated channel, patch clamp; type: cell-based
mV1_579 (ANAP) = mV1_579 (ANAP) (Mus musculus, UniProt Q704Y3, C579X); experiment: as above; type: cell-based
mV1_630 (ANAP) = mV1_630 (ANAP) (Mus musculus, UniProt Q704Y3, S630X); experiment: as above; type: cell-based
mV1_648 (ANAP) = mV1_648 (ANAP) (Mus musculus, UniProt Q704Y3, L648X); experiment: as above; type: cell-based
mV1_685 (ANAP) = mV1_685 (ANAP) (Mus musculus, UniProt Q704Y3, E685X); experiment: as above; type: cell-based
pV1_643 (ANAP) = pV1_643 (ANAP) (Ornithorhynchus anatinus, UniProt F7A7B4, S634X)
rTRPV1 = system: rTRPV1; parameters: method as in Sanchez-Moreno et al; settings: 4 μM capsaicin, ref Sanchez-Moreno et al; cited from earlier work

Chain of mouse TRPV1 (mV1) (Q704Y3 whole entry): as the sequence (Q704Y3 whole entry T371G) above, with G371T counted along it

## COc1cc(CNC(=O)CCCC/C=C/C(C)C)ccc1O [Capsaicin, capsaicin]
Mouse TRPV1 (mV1); Supp Table 1 data, replicate 1
  EC50: 249 nM
Mouse TRPV1 (mV1); Supp Table 1 data, replicate 2
  EC50: 299 nM
Mouse TRPV1 (mV1); Supp Table 2 data, replicate 1
  EC50: 277 nM
Mouse TRPV1 (mV1); Supp Table 2 data, replicate 2
  EC50: 302 nM
Mouse TRPV1 (mV1); Supp Table 3 data, replicate 1
  EC50: 276 nM
Mouse TRPV1 (mV1); Supp Table 3 data, replicate 2
  EC50: 306 nM
Mouse TRPV1 (mV1); Supp Table 3 data, replicate 3
  EC50: 315 nM
Mouse TRPV1 (mV1); Supp Table 4 data, replicate 1
  EC50: 297 nM
Mouse TRPV1 (mV1); Supp Table 4 data, replicate 2
  EC50: 279 nM
Mouse TRPV1 (mV1); Supp Table 4 data, replicate 3
  EC50: 321 nM
Fruit bat TRPV1; mean ± s.e.m., n = 6
  EC50: 354 ± 25 nM
Fruit bat TRPV1; replicate 1
  EC50: 273 nM
Fruit bat TRPV1; replicate 2
  EC50: 389 nM
Fruit bat TRPV1; replicate 3
  EC50: 419 nM
Fruit bat TRPV1; replicate 4
  EC50: 415 nM
Fruit bat TRPV1; replicate 5
  EC50: 274 nM
Fruit bat TRPV1; replicate 6
  EC50: 354 nM
Tree shrew TRPV1; mean ± s.e.m., n = 3
  EC50: 5.26 µM
Tree shrew TRPV1; replicate 1
  EC50: 4.932 µM
Tree shrew TRPV1; replicate 2
  EC50: 5.507 µM
Tree shrew TRPV1; replicate 3
  EC50: 5.341 µM
Camel TRPV1; mean ± s.e.m., n = 5
  EC50: 540 nM
Camel TRPV1; replicate 1
  EC50: 445 nM
Camel TRPV1; replicate 2
  EC50: 443 nM
Camel TRPV1; replicate 3
  EC50: 562 nM
Camel TRPV1; replicate 4
  EC50: 619 nM
Camel TRPV1; replicate 5
  EC50: 631 nM
pV1_mNC chimera; mean ± s.e.m., n = 6
  EC50: 306 nM
pV1_mNC chimera; replicate 3
  EC50: 300 nM
pV1_mNC chimera; replicate 4
  EC50: 276 nM
mV1 T371G; mean ± s.e.m., n = 3
  EC50: 322 nM
mV1 T371G; replicate 1
  EC50: 349 nM
mV1 T371G; replicate 2
  EC50: 332 nM
mV1 S833A; mean ± s.e.m., n = 3
  EC50: 344 nM
mV1 S833A; replicate 1
  EC50: 361 nM
mV1 S833A; replicate 2
  EC50: 282 nM
mV1 S833A; replicate 3
  EC50: 389 nM
mV1 P836A; mean ± s.e.m., n = 3
  EC50: 315 nM
mV1 P836A; replicate 1
  EC50: 262 nM
mV1 P836A; replicate 2
  EC50: 364 nM
mV1_241 (ANAP)
  EC50: 290 nM
mV1_241 (ANAP); replicate 1
  EC50_Capsaicin: 256 nM
mV1_241 (ANAP); replicate 2
  EC50_Capsaicin: 283 nM
mV1_241 (ANAP); replicate 3
  EC50_Capsaicin: 296 nM
mV1_241 (ANAP); replicate 4
  EC50_Capsaicin: 299 nM
mV1_241 (ANAP); replicate 5
  EC50_Capsaicin: 316 nM
mV1_579 (ANAP)
  EC50: 293 nM
mV1_579 (ANAP); replicate 2
  EC50_Capsaicin: 297 nM
mV1_630 (ANAP)
  EC50: 299 nM
mV1_630 (ANAP); replicate 1
  EC50_Capsaicin: 325 nM
mV1_630 (ANAP); replicate 2
  EC50_Capsaicin: 289 nM
mV1_630 (ANAP); replicate 3
  EC50_Capsaicin: 310 nM
mV1_630 (ANAP); replicate 4
  EC50_Capsaicin: 272 nM
mV1_648 (ANAP)
  EC50: 296 nM
mV1_648 (ANAP); replicate 1
  EC50_Capsaicin: 301 nM
mV1_648 (ANAP); replicate 2
  EC50_Capsaicin: 286 nM
mV1_648 (ANAP); replicate 3
  EC50_Capsaicin: 312 nM
mV1_648 (ANAP); replicate 5
  EC50_Capsaicin: 289 nM
mV1_685 (ANAP)
  EC50: 295 nM
mV1_685 (ANAP); replicate 1
  EC50_Capsaicin: 321 nM
mV1_685 (ANAP); replicate 3
  EC50_Capsaicin: 335 nM
mV1_685 (ANAP); replicate 4
  EC50_Capsaicin: 287 nM
mV1_685 (ANAP); replicate 5
  EC50_Capsaicin: 299 nM
mV1_685 (ANAP); replicate 6
  EC50_Capsaicin: 268 nM
mV1_685 (ANAP); replicate 7
  EC50_Capsaicin: 335 nM
mV1_685 (ANAP); replicate 8
  EC50_Capsaicin: 254 nM
pV1_643 (ANAP); replicate 1
  EC50_Capsaicin: 323 nM
pV1_643 (ANAP); replicate 2
  EC50_Capsaicin: 276 nM
pV1_643 (ANAP); replicate 3
  EC50_Capsaicin: 290 nM
pV1_643 (ANAP); replicate 4
  EC50_Capsaicin: 327 nM
pV1_643 (ANAP); replicate 6
  EC50_Capsaicin: 351 nM
rTRPV1
  capsaicin sensitivity of heat-desensitized rTRPV1: insensitive
